Columns and labels:
[1] = tested on: NO production in lipopolysaccharide (LPS) stimulated cells; details: read-out: IC50 (NO production); cells stimulated with 100 ug/ml LPS, 24 h, Griess reaction
Method: Exponentially growing cells were plated in 24-well microplates (BD Falcon) at a density of 2×10^5 cells per well in 400 μl of culture medium and were allowed to adhere overnight. Cells were then treated or not with positive control N(G)-nitro-L-arginine methyl ester (L-NAME), or increasing concentrations of methanol extracts dissolved in the appropriate solvents, and incubated at 37° C., 5% CO2 for 24 h. The final concentration of solvent in the culture medium was maintained at 0.5% (volume/volume) to avoid solvent toxicity. Cells were then stimulated with 100 ug/ml lipopolysaccharide (LPS). After 24 h, cell-free supernatants were collected and stored at −80° C. until NO determination using the Griess reaction (Green et al. 1990) with minor modifications. Briefly, 100 μl aliquots of cell supernatants were incubated with 50 μl of 1% sulfanilamide and 50 μl of 0.1% N-1-naphtylethylenediamine dihydrochloride in 2.5% H3PO4 at room temperature for 20 min. Absorbance at 540 nm was then measured using an automated 96-well Varioskan Ascent™ plate reader (Thermo Electron) and the presence of nitrite was quantified by comparison with an NaNO2 standard curve.

[2] = tested on: B16-F1 mouse melanoma cells; assay: Cytotoxicity, resazurin metabolism assay, B16-F1; type: cell-based; details: 48 h, mean ± SD
Source text: (§1) Human lung carcinoma (A-549), human colon adenocarcinoma (DLD-1), human normal fibroblasts (WS1), mice melanoma (B16-F1), Human glioma (U-251), Human hepatocellular carcinoma (HEP G2), Human prostate adenocarcinoma (PC-3), Human ovary teratocarcinoma metastatic (PA-1), Human breast adenocarcinona metastatic (MDA-MB-231), Human breast adenocarcinoma (MCF-7) and Human malignant melanoma (SK-MEL-2) cell lines were obtained from the American Type Culture Collection (ATCC). All cell lines were cultured in minimum essential medium containing Earle's salts and L-glutamine (Mediatech Cellgro, Va.), to which was added 10% fetal bovine serum (Hyclone), vitamins (1×), penicillin (100 I.U./mL) and streptomycin (100 μg/mL), essential amino acids (1×) and sodium pyruvate (1×) (Mediatech Cellgro, Va.). Cells were kept at 37° C. in a humidified environment containing 5% CO2.
Exponentially growing cells were plated in 96-well microplates (Costar, Corning Inc.) at a density of 5×10^3 cells per well in 100 μL of culture medium and were allowed to adhere for 16 hours before treatment. Increasing concentrations of each compound in DMSO (Sigma-Aldrich) were then added (100 μL per well) and the cells were incubated for 48 h. […] Cytotoxicity was assessed using resazurin (O'Brien, J. et al., Eur. J. Biochem. 2000, 267, 5421-5426) on an automated 96-well Fluoroskan Ascent F1™ plate reader (Labsystems) using excitation and emission wavelengths of 530 nm and 590 nm, respectively. Fluorescence was proportional to the cellular metabolic activity in each well. Survival percentage was defined as the fluorescence in experimental wells compared to that in control wells after subtraction of blank values. Each experiment was carried out three times in triplicata. IC50 results were expressed as mean±standard deviation.
(§2) The cytotoxicity of triterpenes (1-8) and corresponding glycosides (9-30) (Table 2 below) as well as of germanicane-type triterpenes and glycosides (31-44) (Table 3 below) was assessed towards human cancer (A-549, DLD-1), mouse melanoma (B16-F1) and human normal skin fibroblast (WS1) cell lines using the resazurin reduction test (RTT test) as previously described (O'Brien, J. et al., Eur. J. Biochem. 2000, 267, 5421-5426). Measurements of fluorescence were carried out after 48 continuous hours of contact between compounds and cells. Results presented in Tables 2 and 3 below express the concentration inhibiting 50% of the cell growth (IC50). Known for its activity against A-549, betulinic acid (3) was used as a positive control in this experimentation. […] The cytotoxic activity of some of these compounds was also assessed using the Hoechst DNA assay (Table 4 below).

[3] = tested on: A-549 cells; assay: Cytotoxicity, Hoechst DNA assay, A-549; type: cell-based, human; details: ± SD
Source text: as §1, §2

[4] = tested on: WS-1 human normal skin fibroblasts; assay: Cytotoxicity, resazurin metabolism assay, WS-1; type: cell-based; details: 48 h, mean ± SD
How it was run: (§3)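 Cells plated at 5×10^3/well, adhered 16 h, then exposed to increasing compound concentrations (DMSO) for 48 h. Viability by resazurin reduction, fluorescence ex 530/em 590 nm, blank-subtracted versus control wells; IC50 as mean±SD from three experiments in triplicate.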

[5] = tested on: DLD-1 cells; assay: Cytotoxicity, Hoechst DNA assay, DLD-1; type: cell-based, human; details: ± SD
Source text: as §1, §2

[6] = tested on: WS-1 cells; assay: Cytotoxicity, Hoechst DNA assay, WS-1; type: cell-based, human; details: ± SD
Source text: as §1, §2

[7] = tested on: A-549 human lung carcinoma cells; assay: Cytotoxicity, resazurin metabolism assay, A-549; type: cell-based; details: 48 h, mean ± SD
How it was run: as §3

[8] = tested on: B16-F1 cells; assay: Cytotoxicity, Hoechst DNA assay, B16-F1; type: cell-based, mouse; details: ± SD
Source text: as §1, §2

[9] = tested on: DLD-1 human colorectal adenocarcinoma cells; assay: Cytotoxicity, resazurin metabolism assay, DLD-1; type: cell-based; details: 48 h, mean ± SD
How it was run: as §3

[10] = tested on: Lewis lung carcinoma; assay: In vivo antitumoral activity against Lewis lung cancer-bearing mice; parameters: species or system C57BL/6 mouse; details: day 13
Method: Cell lines and mice preparation: The Lewis lung carcinoma cell lines (#CRL-1642, lot # 4372266, ATCC) and the C57BL/6 mouse strain (Charles River Inc., St-Constant, Qc) were used. Cells were grown to 90% confluence in complete DMEM medium containing Earle's salts and L-glutamine (Mediatech Cellgro, Va.), 10% foetal bovine serum (Hyclone), vitamins (1×), penicillin (100 I.U./mL) and streptomycin (100 μg/mL), essential amino acids (1×) and sodium pyruvate (1×) (Mediatech Cellgro, Va.). Cells were then harvested with up and down only. Cells were counted using a hemacytometer and resuspended in DMEM medium without SVF. 100 μL of a solution containing 1×10^7 cells/mL was inoculated subcutaneously in the right flank of each 6 weeks old mouse on day zero.
The experimental mice were weighed daily.
Data analysis: In vivo antitumor activity was evaluated according to the parameters as follows (Miot-Noirault, E. et al. Invest. New Drugs 2004, 22, 369-378):
(a) Calculated tumour weight (CTW): The CTW of each tumour was estimated from two-dimensional measurements performed once a day with a slide calliper, according to the formula: CTW (mg)=(L×W^2)/2 with L=length in mm and W=width in mm. Differences in CTW between treated and control groups (DMSO) were analyzed for significance using the U Wilcoxon-Mann-Whitney test and Student t-test. Values of p<0.05 were considered statistically significant.
(b) Treated/Control value (T/C) and Tumour Growth Inhibition (TGI):The T/C was calculated as the ratio of the mean CTW of TW of drug-treated mice versus controls: T/C=(CTW of the drug-treated group on Day X/CTW of the control group on Day X)×100. TGI is 100−(T/C) value.

[11] = tested on: L1210 murine lymphocytic leukemia; details: 200 mg/kg; cited from earlier work
[12] = tested on: Walker 256 murine carcinosarcoma; details: cited from earlier work

## C=C(C)C1CCC2(COC3OCC(O)C(O)C3O)CCC3(C)C(CCC4C5(C)CCC(O)C(C)(C)C5CCC43C)C12 [Compound 17, 28-O-α-D-Arabinopyranoside of Betulin]
[1]
  IC50: 25 ± 1 µM
[2]
  IC50: > 175 µM
[3]
  IC50: > 194 µM
[4]
  IC50: > 175 µM
[5]
  IC50: > 194 µM
[6]
  IC50: > 194 µM
[7]
  IC50: > 175 µM
[8]
  IC50: > 194 µM
[9]
  IC50: > 175 µM

## C=C(C)[C@@H]1CC[C@]2(C(=O)O)CC[C@]3(C)[C@H](CC[C@@H]4[C@@]5(C)CC[C@H](O)C(C)(C)[C@@H]5CC[C@]43C)[C@@H]12 [Compound 3, Betulinic acid, reference compound]
[2]
  IC50: 16.1 ± 0.5 µM
[3]
  IC50: 8 ± 1 µM
[4]
  IC50: 12 ± 1 µM
[5]
  IC50: 12 ± 1 µM
[10]; 50 mg/kg IP every 3-4 days
  CTW (calculated tumour weight): 294 ± 69 mg
[10]; 50 mg/kg IP
  T/C (Treated/Control): 90%
  TGI (Tumour Growth Inhibition): 10%
[10]; 100 mg/kg IP every 3-4 days
  CTW (calculated tumour weight): 264 ± 58 mg
[10]; 100 mg/kg IP
  T/C (Treated/Control): 81%
  TGI (Tumour Growth Inhibition): 19%
[10]; 200 mg/kg IP every 3-4 days
  CTW (calculated tumour weight): 265 ± 58 mg
[10]; 200 mg/kg IP
  T/C (Treated/Control): 81%
  TGI (Tumour Growth Inhibition): 19%
[11]
  Activity in the L1210 murine lymphocytic leukemia model: inactive
[12]; 400 mg/kg
  Activity in the Walker 256 model (subsequent report): inactive
[12]; dose levels of 300 and 500 mg/kg body weight
  Activity against the Walker 256 murine carcinosarcoma tumor system: dose-dependent activity
[6]
  IC50: 14 ± 2 µM
[7]
  IC50: 10.3 ± 0.4 µM
[8]
  IC50: 18 ± 2 µM
[9]
  IC50: 15 ± 0.3 µM

Source: patent US20100331269A1, “TRITERPENES DERIVATIVES AND USES THEREOF AS ANTITUMOR AGENTS OR ANTI-INFLAMMATORY AGENTS” (priority 2006, published 2010)
